Tests used:
Assay in all cases: relative viability (nuclei count vs DMSO), 5 days (fraction); higher = more cells survive
Tanzisertib + OSI-027 = compound: O[C@H]1CC[C@H](Nc2ncc3nc(Nc4c(F)cc(F)cc4F)n([C@H]4CCOC4)c3n2)CC1 [Tanzisertib] + COc1cccc2cc(-c3nc([C@H]4CC[C@H](C(=O)O)CC4)n4ncnc(N)c34)[nH]c12 [OSI-027] (partner 0.5 µM)
In short: (§1)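 Lung cancer cell lines were pin-tool dosed in 1536-well plates on the day after seeding, with either a lone drug or a fixed anchor-drug dose plus five library-drug doses (not always all listed) in √10 steps. Nuclei were counted on 4× images after 5 days. Relative viability is the ratio of treated-well to vehicle-well nuclei counts, with each value a median of duplicate plates.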

[1] = compound: C1CNCCC1C2=CC(=NN2)C3=CC=NC=C3 + O=C(CCCCCCC(=O)Nc1ccccc1)NO [Vorinostat] (partner 1 µM)
In short: as §1

Tanzisertib + Crizotinib = compound: O[C@H]1CC[C@H](Nc2ncc3nc(Nc4c(F)cc(F)cc4F)n([C@H]4CCOC4)c3n2)CC1 [Tanzisertib] + C[C@@H](Oc1cc(-c2cnn(C3CCNCC3)c2)cnc1N)c1c(Cl)ccc(F)c1Cl [Crizotinib] (partner 1 µM)
In short: as §1

Row | Cell Line | relative viability (Tanzisertib + OSI-027; first compound 0.08 µM) | relative viability (Tanzisertib + OSI-027; first compound 0.253 µM) | relative viability (Tanzisertib + OSI-027; first compound 0.8 µM) | relative viability (Tanzisertib + OSI-027; first compound 2.53 µM) | relative viability (Tanzisertib + OSI-027; first compound 8 µM) | relative viability ([1]; first compound 0.08 µM) | relative viability ([1]; first compound 0.8 µM) | relative viability ([1]; first compound 2.53 µM) | relative viability ([1]; first compound 8 µM) | relative viability (Tanzisertib + Crizotinib; first compound 0.08 µM) | relative viability (Tanzisertib + Crizotinib; first compound 0.253 µM) | relative viability (Tanzisertib + Crizotinib; first compound 0.8 µM) | relative viability (Tanzisertib + Crizotinib; first compound 2.53 µM) | relative viability (Tanzisertib + Crizotinib; first compound 8 µM)
1 | NCI-H1944 | 0.4 | 0.393 | 0.426 | 0.389 | 0.338 | 0.435 | 0.555 | 0.603 | 0.522 | 1.23 | 1.03 | 1.11 | 1.14 | 0.949
2 | NCI-H2347 | 0.447 |  | 0.46 | 0.42 | 0.407 | 0.541 | 0.486 | 0.573 | 0.627 | 0.675 | 0.765 | 0.739 | 0.945 | 0.827
3 | 201T | 0.632 | 0.854 | 0.673 | 0.713 | 0.501 | 0.954 | 0.955 | 1.02 | 0.949 | 1.04 | 1.04 | 1.02 | 1.05 | 0.996
4 | PC-14 | 1.28 | 0.745 | 0.723 | 0.816 | 0.427 | 0.536 | 0.712 | 0.897 | 0.7 | 0.979 | 0.878 | 0.994 | 0.883 | 0.574
5 | Calu-6 |  |  |  |  |  |  |  |  |  | 0.79 | 0.785 | 0.782 | 0.756 | 0.712
6 | NCI-H1703 |  |  |  |  |  |  |  |  |  | 0.538 | 0.573 | 0.69 | 1.08 | 0.723
7 | NCI-H1650 | 0.644 | 0.876 | 0.735 | 0.539 | 0.52 | 0.46 | 0.597 | 0.804 | 0.489 | 1 | 1.06 | 1.07 | 0.914 | 0.803
8 | NCI-H727 | 0.618 | 0.564 | 0.643 | 0.483 | 0.647 | 1.25 | 1.08 | 1.29 | 1.18 | 0.797 | 0.853 | 0.787 | 1.02 | 0.832
9 | NCI-H2342 | 0.663 | 0.718 | 0.571 | 0.537 | 0.583 | 0.706 | 0.71 | 0.774 | 0.809 |  |  |  |  | 
10 | NCI-H1792 | 0.752 | 0.716 | 0.728 | 0.676 | 0.446 |  |  |  |  | 1.03 | 1.05 | 1.04 | 0.879 | 0.87
11 | COR-L23 | 0.892 | 0.757 | 0.704 | 0.842 | 0.732 | 0.455 | 0.56 | 0.631 | 0.447 | 0.861 | 0.669 | 0.638 | 0.701 | 0.709
12 | ChaGo-K-1 | 0.673 | 0.615 | 0.583 | 0.51 | 0.472 | 0.731 | 0.806 | 0.764 | 0.765 | 1.21 | 1.13 | 1.07 | 1.09 | 1.02
13 | HOP-62 | 0.845 | 0.868 | 0.76 | 0.833 | 0.848 | 0.606 | 0.635 | 0.733 | 0.6 | 0.945 | 0.964 | 1 | 1.05 | 0.824
14 | NCI-H1915 | 0.695 | 0.633 | 0.615 | 0.669 | 0.34 | 0.542 | 0.554 | 0.519 | 0.55 | 0.929 | 0.91 | 0.862 | 0.904 | 0.856
15 | BEN | 0.299 | 0.281 | 0.293 | 0.314 | 0.288 | 0.489 | 0.611 | 0.635 | 0.57 | 0.846 | 0.775 | 0.914 | 0.845 | 0.878
16 | NCI-H1437 | 0.85 | 0.822 | 0.943 | 0.902 | 0.908 | 0.863 | 0.94 | 0.912 | 0.971 | 1.07 | 0.89 | 0.94 | 1.01 | 0.919
17 | EMC-BAC-2 | 0.404 | 0.383 | 0.383 | 0.37 | 0.363 |  | 0.475 | 0.498 | 0.436 | 0.799 | 0.74 | 0.705 | 0.763 | 0.747
18 | NCI-H647 | 0.694 | 0.644 | 0.569 | 0.63 | 0.69 | 0.572 | 0.739 | 0.632 | 0.635 | 1.12 | 0.975 | 1.09 | 1.14 | 1.01
19 | LXF-289 | 0.801 | 0.818 | 0.76 | 0.856 | 0.644 | 0.783 | 0.785 | 0.723 | 0.766 | 0.935 | 0.734 | 0.836 | 0.815 | 0.854
20 | LOU-NH91 | 0.785 | 0.758 | 0.756 | 0.671 | 0.489 | 0.925 | 1.02 | 1.05 | 0.955 | 0.716 | 0.734 | 0.723 | 0.464 | 0.593
21 | NCI-H23 | 0.587 | 0.547 | 0.575 | 0.747 | 0.198 | 0.656 |  | 0.668 | 0.721 | 0.568 | 0.553 | 0.554 | 0.601 | 0.598
22 | NCI-H1993 | 0.604 | 0.578 | 0.485 | 0.498 | 0.59 | 0.883 | 0.722 | 0.767 | 1.03 | 0.855 | 0.886 | 0.891 | 0.789 | 0.789
23 | NCI-H1623 | 0.495 | 0.448 | 0.453 | 0.437 | 0.432 |  |  |  |  |  |  |  |  | 
24 | SW 900 | 0.644 | 0.588 | 0.511 | 0.866 | 0.556 | 0.521 |  | 0.684 | 0.563 |  |  |  |  | 
25 | NCI-H1648 | 0.275 | 0.245 | 0.239 | 0.319 | 0.223 | 0.381 | 0.518 |  | 0.488 |  |  |  |  | 
26 | NCI-H1793 | 0.27 | 0.262 | 0.285 | 0.292 | 0.197 | 0.647 |  | 0.985 | 0.874 |  |  |  |  | 
27 | IA-LM |  |  |  |  |  | 0.974 | 1.06 | 0.95 | 1.03 | 0.927 | 0.544 |  | 0.948 | 0.87
28 | A549 |  |  |  |  |  |  |  |  |  | 0.852 | 0.633 | 0.778 | 0.913 | 0.714
